From publication PMC4482483, “Cationic Cell-Penetrating Peptides Are Potent Furin Inhibitors” (PLoS ONE, 2015)
Read-outs that look alike come from different tables or passages of the source.

Columns and labels:
soluble human furin [1] = molecular target: T1, soluble human furin (Homo sapiens, UniProt P09958); conditions: cited from earlier work; for Ki: furin
T1 construct: Soluble human furin was purified from the conditioned medium; made in house; host or cells: CHO DG44 cells (stably transfected, methotrexate-amplified); purified from conditioned medium

[2] = system: intracellular convertase activity in CHO-GRAPfurin cells; test: SEAP activity assay (GRAPfurin Golgi reporter); format: cell-based; conditions: 1 μM, 20–24 h at 37 °C
Method: CHO-GRAPfurin cells expressing the hybrid reporter protein GRAPfurin, consisting of the secreted alkaline phosphatase (SEAP) protein fused to a Golgi retention signal and a specific furin recognition/cleavage site, […] The medium was collected, centrifuged, and heated for 30 min at 65°C to inactivate non-relevant phosphatases. To test SEAP activity, 2.5 μl of heated medium was mixed with 100 μl of assay buffer (100 mM Tris-HCl, pH 10, 100 mM NaCl, 5 mM MgCl2) and 100 μl of 36 μM 4-methylumbelliferyl phosphate (MUP), a phosphatase substrate, made in 50 mM Tris-HCl, pH 10. Fluorescence was measured every 20 seconds after excitation at 365 nm and recording emission at 460 nm at 37°C for 1 h. Since SEAP released from the tethered furin reporter is secreted, SEAP levels in the medium are proportional to the activity of Golgi furin [24, 25]. The experiments were independently repeated three times using triplicate wells per condition.
Fig 4 Cyclic polyarginine peptides inhibit cellular convertase activity. (a) CHO cells were incubated with each compound at 1 μM for 24 h at 37°C, and cell viability was monitored by incubation for 4 h with WST-1. […] Secreted alkaline phosphatase activity was measured in the medium. […]

soluble human furin [3] = molecular target: T1, soluble human furin; test: furin enzyme assay with fluorogenic substrate pERTKR-mca; format: biochemical; conditions: for furin inhibition: peptide at 100 μM, 100 μM pERTKR-mca, Fig 1
Method: Soluble human furin was purified from the conditioned medium of stably-transfected, methotrexate-amplified CHO DG44 cells, as previously described. […] The HIV-1 TAT47-57 peptide was purchased from Creative Peptides (Shirley, NY). The Chariot reagent was purchased from Active Motif (Carlsbad, CA). […] The fourth peptide (W4-[R5]; N-acetyl-WWWW-[KRRRRR]) is N-terminally acetylated.
The furin assay was performed in 96-well polypropylene microtiter plates in a final volume of 50 μl, containing 100 mM HEPES, pH 7.0, 5 mM CaCl2, 0.1% Brij 35, 0.1% NaN3, and 0.1 mg/ml BSA. The substrate p-Glu-Arg-Thr-Lys-Arg-4-methylcoumaryl-7-amide (pERTKR-mca; Peptide Institute, Lexington, KY) was used at a final concentration of 100 μM. Furin was used at a final concentration of 20 nM. Reaction mixtures were incubated at 37°C and fluorescence measurements (380 nm excitation, 460 nm emission) were taken under kinetic conditions every minute for 60 min in a SpectraMax M2 microplate reader. […] After a 30-min preincubation at room temperature, 100 μM of pERTKR-methylaminocoumarin (mca) was added, and residual enzyme activities were monitored by measuring mca fluorescence intensity. Data were analyzed using Prism 5 as described previously. Due to cost considerations, Ki determinations were not performed for the HIV TAT peptide or for the Chariot reagent.
Soluble human furin, pre-incubated for 20 min at room temperature in the presence of (a) HIV-1 TAT (47–57) or (b) Chariot peptide, was tested at the specified concentrations. Furin activity was assessed by measuring the release of the fluorescent mca product from the fluorogenic substrate, pERTKR-mca.

[4] = system: HT1080 fibrosarcoma cells; test: Oris cell migration assay; format: cell-based; conditions: 10 μM peptide
Method: HT1080 fibrosarcoma cells (ATCC# CCL-121) were cultured to 80% confluence in growth medium (MEM (Earle’s salts + L-glutamine) 10% FBS, 1:100 non-essential amino acids (NEAA), 1 mM sodium pyruvate, 500 U/ml penicillin-streptomycin, and 1% gentamycin; Life Technologies). Cells were plated in an Oris Cell Migration Assay (Platypus Technologies) 96-well plate at 10^5 cells per well, following the manufacturer’s protocol. The next day, the growth medium was removed, the wells rinsed with PBS, and the cells were incubated in assay medium MEM (Earle’s salts + L-glutamine) containing 10% heat-inactivated FBS, 1:100 NEAA, 1 mM sodium pyruvate, 500U/ml penicillin-streptomycin, and 1% gentamycin in the presence or absence of inhibitors for 24 h at 37°C and 5% CO2. After incubation cells were rinsed with PBS (calcium and 20 mM HEPES, pH 7.4, as per the manufacturer’s protocol), and incubated with the Live / Dead Cell Stain Kit containing 2 μM calcein AM and 4 μM ethidium homodimer (EthD-1) for 30 min at 37°C and 5% CO2. Fluorescence was then measured at 485/528 nm excitation/emission for calcein AM, and 530/645 nm for EthD-1. […]
Fig 2 Effect of HIV-1 TAT47-57 peptide on cell migration of fibrosarcoma HT1080 cells. Cells were incubated with either 10 μM of peptide or vehicle (water) for 24 h at 37°C and cell migration was measured as described in “Materials and Methods”. […]

T1 sequence (P09958 108-715 limits assumed): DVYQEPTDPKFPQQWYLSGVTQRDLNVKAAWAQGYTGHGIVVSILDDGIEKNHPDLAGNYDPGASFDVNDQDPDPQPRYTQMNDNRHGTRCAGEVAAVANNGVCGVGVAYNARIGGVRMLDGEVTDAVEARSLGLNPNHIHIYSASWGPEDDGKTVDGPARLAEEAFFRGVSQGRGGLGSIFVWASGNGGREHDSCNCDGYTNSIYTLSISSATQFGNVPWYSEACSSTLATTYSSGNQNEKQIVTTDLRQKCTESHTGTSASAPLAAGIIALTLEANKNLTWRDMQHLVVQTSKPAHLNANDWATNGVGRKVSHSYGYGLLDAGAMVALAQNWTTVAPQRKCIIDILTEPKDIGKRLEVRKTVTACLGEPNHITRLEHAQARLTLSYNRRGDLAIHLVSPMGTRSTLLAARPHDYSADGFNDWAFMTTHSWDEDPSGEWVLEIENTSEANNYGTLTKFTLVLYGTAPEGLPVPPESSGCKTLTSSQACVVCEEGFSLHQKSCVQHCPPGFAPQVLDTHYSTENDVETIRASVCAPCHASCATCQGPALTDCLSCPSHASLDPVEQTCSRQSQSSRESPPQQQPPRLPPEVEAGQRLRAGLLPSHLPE

Row | Molecule | inhibition constants against furin and other convertases (soluble human furin [1]) | Ki (soluble human furin [1]) [nM] | Ki (soluble human furin [3]) [nM] | furin inhibition (soluble human furin [3]) | further results
1 | Nona-D-arginine amide | nanomolar range | 1.3 ± 2 |  |  | 
2 | hexa-D-arginine amide | nanomolar range | 106 ± 10 |  |  | 
3 | CC(=O)N[C@@H](Cc1c[nH]c2ccccc12)C(=O)N[C@@H](Cc1c[nH]c2ccccc12)C(=O)N[C@@H](Cc1c[nH]c2ccccc12)C(=O)N[C@@H](Cc1c[nH]c2ccccc12)C(=O)NCCCC[C@@H]1NC(=O)[C@H](CCCNC(=N)N)NC(=O)[C@H](CCCNC(=N)N)NC(=O)[C@H](CCCNC(=N)N)NC(=O)[C@H](CCCNC(=N)N)NC(=O)[C@H](CCCNC(=N)N)NC1=O [W4-[R5], N-acetyl-WWWW-[KRRRRR]] |  |  | 100 ± 140 |  | inhibition of intracellular convertase activity (SEAP release) [2]: most effective compound in cells
4 | N=C(N)NCCC[C@H](NC(=O)[C@H](CCCNC(=N)N)NC(=O)[C@H](CCCNC(=N)N)NC(=O)[C@H](CCC(N)=O)NC(=O)[C@H](CCCNC(=N)N)NC(=O)[C@H](CCCNC(=N)N)NC(=O)[C@H](CCCCN)NC(=O)[C@H](CCCCN)NC(=O)[C@H](CCCNC(=N)N)NC(=O)CNC(=O)[C@@H](N)Cc1ccc(O)cc1)C(=O)O [HIV-1 TAT47-57, YGRKKRRQRRR] |  |  |  | nearly complete | toxicity to HT1080 cells [4]: non-toxic; inhibition at 10 µM (soluble human furin [3]; read-out: furin inhibition): ~60%
5 | KETWWETWWTEWSQPKKKRKV [Chariot] |  |  |  | ~ 60% | 
6 | N=C(N)NCCC[C@@H]1NC(=O)[C@H](Cc2c[nH]c3ccccc23)NC(=O)[C@H](CS)NC(=O)[C@H](Cc2c[nH]c3ccccc23)NC(=O)[C@H](CCCNC(=N)N)NC(=O)[C@H](Cc2c[nH]c3ccccc23)NC(=O)[C@H](CCCNC(=N)N)NC(=O)[C@H](Cc2c[nH]c3ccccc23)NC(=O)[C@H](CCCNC(=N)N)NC(=O)[C@H](Cc2c[nH]c3ccccc23)NC1=O [[W5R4C], [WRWRWRWRWC]] |  |  | 340 ± 20 |  | 
